Assay results: BigSolDB 2.1
Where a SMILES comes first, the peptide text is derived from it.

Question: Which solubility (mole fraction) (in ethanol, 278.15 K) does the source give for `COC(=O)[C@H](Cc1ccccc1)NC(=O)[C@@H](N)CC(=O)O` (H-Asp-Phe-OMe) here?
Answer: 3.16e-05

Question: And the solubility (mole fraction) (in ethanol, 283.15 K)?
Answer: 4.53e-05

Question: And the solubility (mole fraction) (in ethanol, 288.15 K)?
Answer: 6.19e-05

Question: What about the solubility (mole fraction) (in ethanol, 293.15 K) of the same compound?
Answer: 8.48e-05

Question: And the solubility (mole fraction) (in ethanol, 298.15 K)?
Answer: 0.000113

Question: And the solubility (mole fraction) (in ethanol, 303.15 K)?
Answer: 0.000144

Question: What about the solubility (mole fraction) (in ethanol, 308.15 K) of the same compound?
Answer: 0.000187

Question: And the solubility (mole fraction) (in ethanol, 313.15 K)?
Answer: 0.000236

Question: And the solubility (mole fraction) (in ethanol, 318.15 K)?
Answer: 0.000291

Question: And the solubility (mole fraction) (in ethanol, 323.15 K)?
Answer: 0.000347

Question: What about the solubility (mole fraction) (in ethanol, 328.15 K) of the same compound?
Answer: 0.000418

Question: And the solubility (mole fraction) (in ethanol, 333.15 K)?
Answer: 0.000493

Question: What about the solubility (mole fraction) (in methanol, 278.15 K) of the same compound?
Answer: 0.000532

Question: And the solubility (mole fraction) (in methanol, 283.15 K)?
Answer: 0.000593

Question: What about the solubility (mole fraction) (in methanol, 288.15 K) of the same compound?
Answer: 0.000665

Question: And the solubility (mole fraction) (in methanol, 293.15 K)?
Answer: 0.00074

Question: What about the solubility (mole fraction) (in methanol, 298.15 K) of the same compound?
Answer: 0.000832

Question: What about the solubility (mole fraction) (in methanol, 303.15 K) of the same compound?
Answer: 0.000939

Question: What about the solubility (mole fraction) (in methanol, 308.15 K) of the same compound?
Answer: 0.00107

Question: What about the solubility (mole fraction) (in methanol, 313.15 K) of the same compound?
Answer: 0.0012

Question: What about the solubility (mole fraction) (in methanol, 318.15 K) of the same compound?
Answer: 0.00136

Question: And the solubility (mole fraction) (in methanol, 323.15 K)?
Answer: 0.00155

Question: What about the solubility (mole fraction) (in methanol, 328.15 K) of the same compound?
Answer: 0.00175

Question: What about the solubility (mole fraction) (in methanol, 333.15 K) of the same compound?
Answer: 0.002

Question: What about the solubility (mole fraction) (in water, 278.15 K) of the same compound?
Answer: 0.000338

Question: And the solubility (mole fraction) (in water, 283.15 K)?
Answer: 0.000408

Question: What about the solubility (mole fraction) (in water, 288.15 K) of the same compound?
Answer: 0.000483

Question: What about the solubility (mole fraction) (in water, 293.15 K) of the same compound?
Answer: 0.000581

Question: What about the solubility (mole fraction) (in water, 298.15 K) of the same compound?
Answer: 0.000701

Question: And the solubility (mole fraction) (in water, 303.15 K)?
Answer: 0.000836

Question: What about the solubility (mole fraction) (in water, 308.15 K) of the same compound?
Answer: 0.00102

Question: What about the solubility (mole fraction) (in water, 313.15 K) of the same compound?
Answer: 0.00123

Question: What about the solubility (mole fraction) (in water, 318.15 K) of the same compound?
Answer: 0.0015

Question: And the solubility (mole fraction) (in water, 323.15 K)?
Answer: 0.00182

Question: And the solubility (mole fraction) (in water, 328.15 K)?
Answer: 0.00224

Question: What about the solubility (mole fraction) (in water, 333.15 K) of the same compound?
Answer: 0.00274
